SMILES strings stand for the structures. Calls of active or inactive are those of the source. The rule behind the calls is not given here. Bounds are passed on as bounds.

The text below walks through data of ChEMBL document CHEMBL1133992, “Hydrolase and sialyltransferase activities of trypanosoma cruzi trans-sialidase towards NeuAc-alpha-2,3-gal-Gal-beta-O-PNP” (Bioorg Med Chem Lett, 2001).

The test system of one assay is Vibrio cholerae. Kind of assay: Inhibitory activity against Vibrio cholerae sialidase at mM concentration, Not significant.
Assay [1] relates to Trypanosoma cruzi. Kind of assay: Km value for transferase activity of Trypanosoma cruzi trans-sialidase.
In assay [2] the test system is Trypanosoma cruzi. In words: Km value for hydrolase activity of Trypanosoma cruzi trans-sialidase.

The Km is the substrate concentration at which the rate is half of its maximum. For the molecule `CCCCCCCCOC1OC(CO)C(O)C(SC2(C(=O)O)CC(O)C(NC(C)=O)C([C@H](O)[C@H](O)CO)O2)C1O` (stereo partly drawn), the inhibition result with Vibrio cholerae was “inactive”. Further, the Michaelis-Menten constant (Km) in the assay on Trypanosoma cruzi [1] and in the assay with Trypanosoma cruzi [2] was more than 5 mM in each case.
